Assay results taken from patent publication US20050260183A1, “Treatment of surfaces populated by bacteria with a lucilia sericata extract” (priority 2002, published 2005).
Read-outs that look alike come from different tables or passages of the source. Ends that are not written are not given here.

What was measured:
BHL = assay type: biochemical, Pseudomonas aeruginosa
OdDHL = assay type: biochemical, Pseudomonas aeruginosa
E. coli D31 = assay type: cell-based

| Compound | effect of pre-incubation of ES with inhibitor on BHL degradation (BHL) | effect of inhibitor on OdDHL degradation by ES (OdDHL) | antimicrobial plaque diameter (E. coli D31; 2 μl Cecropin B at 10 μg/ml) | antimicrobial plaque diameter (E. coli D31; 2 μl Cecropin B at 100 μg/ml) |
| --- | --- | --- | --- | --- |
| O=S(=O)(F)Cc1ccccc1 [PMSF, phenylmethanesulphonyl fluoride] | degradation was prevented | inhibited | – | – |
| Cecropin B (KWKVFKKIEKMGRNIRNGIVKAGPAIAVLGEAKAL; ends and bridges not checked; UniProt P01508 27-61, looked up) [Cecropin B (Sigma), anti-microbial standard] | – | – | 4.25 mm | 8 mm |
